PubChem BioAssay (NCI)
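Tested at 5 concentrations; 48 h exposure; 96-well plates; endpoints linearly interpolated, else capped at highest concentration. At the GI50, growth is halved. The concentration for full growth arrest is given as TGI.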

Experiments:
Test in all cases: inhibition of tumour cell growth, NCI panel, 48 h
[1] = system: HS 578T breast
[2] = system: PC-3 prostate
[3] = system: T-47D breast
[4] = system: DLD-1 colon
[5] = system: DMS 114 small cell lung
[6] = system: KM20L2 colon
[7] = system: LXFL 529 NSCLC
[8] = system: SNB-78 CNS
[9] = system: XF 498 CNS
[10] = system: HOP-18 NSCLC

Molecule `CCCc1cc(=O)oc2c(C(=O)CC(C)C)c(O)c(CC=C(C)C)c(O)c12` has a GI50 [1] of 13.4 µM, a TGI [1] greater than 50 µM and a GI50 [2] of 6220 nM. It also gave a TGI [2] of 34.3 µM, a GI50 [3] of 9.33 µM and a TGI [3] of 40.3 µM.
Molecule `O=C1NC(=NCC(CO)c2ccccc2)S/C1=C\c1ccc2ncccc2c1` (configuration not stated) has a GI50 [1] of 14.7 µM, a TGI [1] greater than 25 µM and a GI50 [2] greater than 25000 nM. The TGI [2] was greater than 25 µM, the GI50 [3] was 25 µM and the TGI [3] was greater than 25 µM.
For `NC(=S)N/N=C(/CC(=O)c1ccc([N+](=O)[O-])cc1)C(=O)Nc1ncc([N+](=O)[O-])s1`, the TGI [4] was greater than 100 µM, the TGI [5] was greater than 100 µM and the TGI [6] was greater than 100 µM. For the same molecule, the TGI [7] was greater than 100 µM, the TGI [8] was greater than 100 µM and the TGI [9] was greater than 100 µM.
`COC1=C(OC)C(=O)C(/C=C(\C)C(=O)O)=C(C)C1=O` showed a GI50 [1] greater than 100 µM, a TGI [1] greater than 100 µM and a GI50 [2] greater than 100000 nM. It also gave a TGI [2] greater than 100 µM, a GI50 [3] greater than 100 µM and a TGI [3] greater than 100 µM.
In the case of `COc1cccc(Nc2nc(NNC(=O)Cc3ccccc3)nc(NNC(=O)c3ccncc3)n2)c1`, the GI50 [1] is reported as greater than 100 µM, the TGI [1] is reported as greater than 100 µM and the TGI [2] is reported as greater than 100 µM.
Molecule `Nc1ccc2c(c1)C(=O)c1ccc(F)cc1-2` has a TGI [1] greater than 100 µM, a TGI [2] greater than 100 µM and a TGI [3] greater than 100 µM.
Work on `CN(C)CCNC(=O)c1cccc2nc3ccc4ccccc4c3nc12` yielded a TGI [4] of 1.46 µM, a TGI [5] of 0.293 µM and a TGI [10] of 446 nM. It also gave a TGI [8] of 10 µM.
In the case of `CCCCCCN(CCCCCC)CCCNc1nccc2ccccc12`, the GI50 [1] is reported as 2.13 µM, the TGI [1] is reported as 5.66 µM and the GI50 [2] is reported as 2000 nM. For the same molecule, the TGI [2] was 5.54 µM.
`CC(=O)CC(=O)CCCC(=O)Nc1ccc(Cl)cc1C` was tested, and the TGI [4] was greater than 100 µM, the TGI [5] was greater than 100 µM and the TGI [10] was greater than 100000 nM. It also gave a TGI [6] greater than 100 µM, a TGI [7] greater than 100 µM and a TGI [8] greater than 100 µM.
`O=C(Oc1cccnc1)c1ccccc1Nc1ccnc(C(F)(F)F)c1` showed a GI50 [1] of 4.13 µM, a TGI [1] greater than 100 µM and a GI50 [2] of 449 nM. It also gave a TGI [2] greater than 100 µM, a GI50 [3] of 23 µM and a TGI [3] of 51.5 µM.
`C[N+](C)(C)CCOP(=O)(O)OP(=O)([O-])OCC1CCC(n2ccc(N)nc2=O)O1` (configuration not stated) gave a TGI [1] greater than 100 µM, a TGI [2] greater than 100 µM and a TGI [3] greater than 100 µM.
Work on `CC(=O)OC1(C#N)CC2OC1C1C2N1C(=O)c1ccccc1` (configuration not stated) yielded a TGI [4] greater than 100 µM, a TGI [5] greater than 100 µM and a TGI [6] greater than 100 µM. For the same molecule, the TGI [7] was greater than 100 µM, the TGI [8] was greater than 100 µM and the TGI [9] was greater than 100 µM.
Molecule `O=C1C2=C(C(=O)c3c(O)ccc(O)c31)N(c1ccc(N3CCOCC3)nc1)Cc1ccccc1O2` has a GI50 [1] of 1.52 µM, a TGI [1] greater than 55.4 µM and a GI50 [2] of 387 nM. For the same molecule, the TGI [2] was 1.89 µM, the GI50 [3] was 0.205 µM and the TGI [3] was 0.9 µM.
`CCOC(=O)CC(=O)ON(C)C(=O)Cc1ccccc1` gave a TGI [4] greater than 100 µM, a TGI [5] greater than 100 µM and a TGI [6] greater than 100 µM. For the same molecule, the TGI [7] was greater than 100 µM and the TGI [8] was greater than 100 µM.
`c1cncc(CNc2ccccc2-c2nnc(Nc3ccc4c(c3)OCO4)o2)c1` was tested, and the GI50 [1] was 0.0974 µM, the TGI [1] was greater than 100 µM and the GI50 [2] was 89.8 nM. It also gave a TGI [2] greater than 76.9 µM, a GI50 [3] of 0.22 µM and a TGI [3] greater than 100 µM.
`O=C(N[C@H](c1ccc(Cl)c(Cl)c1)C1CNC1)c1ccc2cnccc2c1` showed a GI50 [1] of 1 µM, a TGI [1] of 4.71 µM and a GI50 [2] of 3480 nM. It also gave a TGI [2] of 16.1 µM, a GI50 [3] of 2.29 µM and a TGI [3] of 13.5 µM.
